Patent US20150038707A1, “PROCESS FOR MAKING CGRP RECEPTOR ANTAGONISTS” (Merck Sharp & Dohme Corp., priority 2012, published 2015)

Assays:
[1] = test system: female Aedes aegypti (Thailand strain) mosquitoes; experiment: Contact irritancy and spatial repellency screening (Example 4); assay type: in vivo; conditions: Dosage 25 nmol/cm^2; mapped with 3000 other compounds
Method: (§1) Four compounds of formula (I) were tested for contact irritancy (i.e., movement away from the source after physical contact) at low doses on female Aedes aegypti (Thailand strain) mosquitoes. The contact irritant response was determined by use of the contact irritant assay disclosed by Grieco et al. in “A New Classification System for the Actions of IRS Chemicals Traditionally Used for Malaria Control,” Plos One, Issue 8 (2007) (available at www.plosone.org). The assay used was a cylindrical assembly that included a metal treatment end to which 10 mosquitoes were introduced and a clear receiving chamber. The treatment end included a netting strip (nylon organdy) that was treated with the insecticide of interest at the relevant dose. A butterfly valve separated the treatment end from the remainder of the assembly.
The four compounds of formula I described in Example 2 were tested for spatial repellency (directed movement away from the chemical source without the insect making physical contact with the treated surface) at low doses on female Aedes aegypti (Thailand strain) mosquitoes. The spatial repellency response was determined by use of the spatial repellency assay disclosed by Grieco et al. in “A New Classification System for the Actions of IRS Chemicals Traditionally Used for Malaria Control” in Plos One, Issue 8 (2007) (available at www.plosone.org) which is incorporated herein by reference for all relevant and consistent purposes. The assay used was a cylindrical assembly that included a treatment chamber at one end and a control chamber at the other end. The treatment chamber included a netting strip (nylon organdy) that was treated with the insecticide of interest at the relevant dose. The treatment chamber and control chamber were connected by a clear cylinder and were separated from the clear cylinder by butterfly valves. Twenty (20) mosquitoes were introduced into the clear central chamber and the butterfly valves were opened after 30 seconds. After 10 minutes, the valves were closed and the number of mosquitoes in each chamber was counted.
Dosage was 25 nmol/cm^2. Several known compounds were also mapped for comparison—alphacypermethrin, cypermethrin, propoxur, bendiocarb, permethrin, SS220, DDT, deet and chlorpyrifos.

[2] = test system: Ae. aegypti Isla mujeres strain (metabolically pyrethroid resistant); experiment: Toxicity assay on treated netting (Example 7), Isla mujeres strain; assay type: in vivo
Method: (§2) Several compounds were tested to determine their toxic effect on Ae. aegypti mosquitoes. Three mosquito strains were tested—Houston which is pyrethroid susceptible, That which is pyrethroid tolerant and Isla Mujer which is metabolically pyrethroid resistant.
(§3) The toxicity assay involved a single chamber to which treated netting was added. Twenty (20) mosquitoes were transferred to the chamber. After 1 hour, the number of knocked down mosquitoes was recorded and all mosquitoes were transferred to holding cartoons. The mosquitoes were given a 10% sucrose-soaked cotton ball and returned to the insectary. Mortaility was measured after 24 hours. A control assay using acetone-treated netting was used. Six replicates were performed at each treatment concentration.

[3] = test system: Ae. Aegypti, Isla Mujer strain (metabolically pyrethroid resistant); experiment: Contact irritancy on metabolically resistant mosquitoes (Example 5); assay type: in vivo
Method: as §1
Each composition was applied to the netting strip at a varied dose via a 1.5 ml acetone solution. Four (4) treatment concentrations were used—0.0025 nmol/cm^2, 0.025 nmol/cm^2, 0.25 nmol/cm^2 and 2.5 nmol/cm^2. Netting was allowed to dry for 15 minutes prior to placement in the cylinder. Control assays were performed with netting treated with acetone only.
For each run, 10 mosquitoes were transferred into the treatment end of the assembly and, after 30 seconds, the butterfly valve was opened. The valve was closed after 10 minutes and the number of mosquitoes in the clear end (i.e., the number of escaped mosquitoes) was tested.
The contact irritancy protocol of Example 2 was used to determine contact irritancy against mosquitoes (Ae. Aegypti) that had acquired metabolic resistance against pyrethroids. Alphacypermethrin and transfluthrin were also tested. Three mosquito strains were tested—Houston which is pyrethroid susceptible, That which is pyrethroid tolerant and Isla Mujer which is metabolically pyrethroid resistant.

[4] = test system: Ae. aegypti Thai strain (pyrethroid tolerant); experiment: Toxicity assay on treated netting (Example 7), Thai strain; assay type: in vivo
Method: as §2, §3

[5] = test system: Ae. aegypti Houston strain (pyrethroid susceptible); experiment: Toxicity assay on treated netting (Example 7), Houston strain; assay type: in vivo
Method: as §2, §3

KDR Resisant An. Gambiae = experiment: Bottle toxicity assay (Example 8), knockdown resistant mosquitoes; assay type: in vivo, Anopheles gambiae
Method: (§4) Several compounds were tested to determine their toxic effect on knockdown resistant Anopheles gambiae mosquitoes and susceptible mosquitoes. Acetone and different amounts of pesticides were added to 250 ml bottles. In one bottle, only acetone was added as a control. The bottles were rotated in all directions while uncapped until all acetone was evaporated and the insecticide was coated onto the inside surfaces of the bottle. A number of knockdown resistant Anopheles gambiae mosquitoes were added to the bottle. The number of dead mosquitoes was recorded at 1 hour and 24 hours.

Susceptible An. Gambiae = experiment: Bottle toxicity assay (Example 8), susceptible mosquitoes; assay type: in vivo, Anopheles gambiae
Method: as §4

[6] = Dose 0.025 nm/cm^2, Time 1 hour
[7] = Dose 0.025 nm/cm^2, Time 24 hours
[8] = Dose 0.0725 nm/cm^2, Time 1 hour
[9] = Dose 0.0725 nm/cm^2, Time 24 hours
[10] = Dose 0.125 nm/cm^2, Time 1 hour
[11] = Dose 0.125 nm/cm^2, Time 24 hours
[12] = Dose 0.25 nm/cm^2, Time 24 hours
[13] = Dose 2.5 nm/cm^2, Time 24 hours
[14] = Dose 0.025 μg/bottle, Strain Tested F122, Time 1 hour
[15] = Dose 0.025 μg/bottle, Strain Tested F122, Time 24 hours
[16] = Dose 0.025 μg/bottle, Strain Tested F123, Time 1 hour
[17] = Dose 0.025 μg/bottle, Strain Tested F123, Time 24 hours
[18] = Dose 0.25 μg/bottle, Strain Tested F122, Time 1 hour
[19] = Dose 0.25 μg/bottle, Strain Tested F122, Time 24 hours
[20] = Dose 0.25 μg/bottle, Strain Tested F123, Time 1 hour
[21] = Dose 0.25 μg/bottle, Strain Tested F123, Time 24 hours
[22] = Dose 2.5 μg/bottle, Strain Tested F122, Time 1 hour
[23] = Dose 2.5 μg/bottle, Strain Tested F122, Time 24 hours
[24] = Dose 2.5 μg/bottle, Strain Tested F123, Time 1 hour
[25] = Dose 2.5 μg/bottle, Strain Tested F123, Time 24 hours

`CC1(C)C(C=C(Cl)Cl)C1C(=O)OCc1ccc(F)c(C(F)(F)F)c1F` (stereo not shown) [Compound 1406] was tested, and the “contact irritancy and spatial repellency relative to screened compounds (FIG. 3)” value [1] was “superior contact irritancy and spatial repellency relative to most screened compounds”, the “Isla mujeres (% dead (SE))” value ([2]; Dose 0.00725 nm/cm^2, Time 1 hour) was 0% and the “Isla mujeres (% dead (SE))” value ([2]; Dose 0.00725 nm/cm^2, Time 24 hours) was 7.77%. For the same molecule, the “Isla mujeres (% dead (SE))” value [2, 6] was 100%, the “Isla mujeres (% dead (SE))” value [2, 7] was 42.77% and the “Isla mujeres (% dead (SE))” value [2, 8] was 96.29%. For the same molecule, the “Isla mujeres (% dead (SE))” value [2, 9] was 25.37%, the “Isla mujeres (% dead (SE))” value [2, 10] was 100% and the “Isla mujeres (% dead (SE))” value [2, 11] was 100%. For the same molecule, the “Isla mujeres (% dead (SE))” value ([2]; Dose 0.25 nm/cm^2, Time 1 hour) was 100%, the “Isla mujeres (% dead (SE))” value [2, 12] was 100% and the “Isla mujeres (% dead (SE))” value ([2]; Dose 2.5 nm/cm^2, Time 1 hour) was 100%. The “Isla mujeres (% dead (SE))” value [2, 13] was 100%, the “toxicity to resistant populations compared with standard compounds” value ([2]; summary of Table 2) was “more toxic to resistant populations than permethrin, matfluthrin and transfluthrin” and the “contact irritancy, resistant strain (FIG. 4)” value [3] was “effective in resistant strains”. The “Thai (% dead (SE))” value [4, 6] was 100%, the “Thai (% dead (SE))” value [4, 7] was 98.3% and the “Thai (% dead (SE))” value [4, 8] was 100%. For the same molecule, the “Thai (% dead (SE))” value [4, 9] was 100%, the “Thai (% dead (SE))” value ([4]; Dose 0.25 nm/cm^2, Time 1 hour) was 96.6% and the “Thai (% dead (SE))” value [4, 12] was 100%. For the same molecule, the “Thai (% dead (SE))” value ([4]; Dose 2.5 nm/cm^2, Time 1 hour) was 100%, the “Thai (% dead (SE))” value [4, 13] was 100% and the “Houston (% dead (SE))” value [5, 6] was 100%. The “Houston (% dead (SE))” value [5, 7] was 100%, the “Houston (% dead (SE))” value [5, 8] was 100% and the “Houston (% dead (SE))” value [5, 9] was 100%. The “Houston (% dead (SE))” value [5, 10] was 100%, the “Houston (% dead (SE))” value [5, 11] was 100% and the “Houston (% dead (SE))” value ([5]; Dose 0.25 nm/cm^2, Time 1 hour) was 100%. The “Houston (% dead (SE))” value [5, 12] was 100%, the “Houston (% dead (SE))” value ([5]; Dose 2.5 nm/cm^2, Time 1 hour) was 100% and the “Houston (% dead (SE))” value [5, 13] was 100%. For the same molecule, the “KDR Resisant An. Gambiae (% dead (SE))” value (KDR Resisant An. Gambiae; [14]) was 100%, the “KDR Resisant An. Gambiae (% dead (SE))” value (KDR Resisant An. Gambiae; [15]) was 100% and the “KDR Resisant An. Gambiae (% dead (SE))” value (KDR Resisant An. Gambiae; [16]) was 100%. The “KDR Resisant An. Gambiae (% dead (SE))” value (KDR Resisant An. Gambiae; [17]) was 100%, the “KDR Resisant An. Gambiae (% dead (SE))” value (KDR Resisant An. Gambiae; [18]) was 100% and the “KDR Resisant An. Gambiae (% dead (SE))” value (KDR Resisant An. Gambiae; [19]) was 100%. For the same molecule, the “KDR Resisant An. Gambiae (% dead (SE))” value (KDR Resisant An. Gambiae; [20]) was 100%, the “KDR Resisant An. Gambiae (% dead (SE))” value (KDR Resisant An. Gambiae; [21]) was 100% and the “KDR Resisant An. Gambiae (% dead (SE))” value (KDR Resisant An. Gambiae; [22]) was 100%. The “KDR Resisant An. Gambiae (% dead (SE))” value (KDR Resisant An. Gambiae; [23]) was 100%, the “KDR Resisant An. Gambiae (% dead (SE))” value (KDR Resisant An. Gambiae; [24]) was 100% and the “KDR Resisant An. Gambiae (% dead (SE))” value (KDR Resisant An. Gambiae; [25]) was 100%. The “effectiveness against knockdown resistant strains” value (KDR Resisant An. Gambiae; summary of Table 3) was “effective against knockdown resistant strains”, the “Susceptible An. Gambiae (% dead (SE))” value (Susceptible An. Gambiae; [14]) was 100% and the “Susceptible An. Gambiae (% dead (SE))” value (Susceptible An. Gambiae; [15]) was 100%. The “Susceptible An. Gambiae (% dead (SE))” value (Susceptible An. Gambiae; [16]) was 100%, the “Susceptible An. Gambiae (% dead (SE))” value (Susceptible An. Gambiae; [17]) was 100% and the “Susceptible An. Gambiae (% dead (SE))” value (Susceptible An. Gambiae; [18]) was 100%. For the same molecule, the “Susceptible An. Gambiae (% dead (SE))” value (Susceptible An. Gambiae; [19]) was 100%, the “Susceptible An. Gambiae (% dead (SE))” value (Susceptible An. Gambiae; [20]) was 100% and the “Susceptible An. Gambiae (% dead (SE))” value (Susceptible An. Gambiae; [21]) was 100%. For the same molecule, the “Susceptible An. Gambiae (% dead (SE))” value (Susceptible An. Gambiae; [22]) was 100%, the “Susceptible An. Gambiae (% dead (SE))” value (Susceptible An. Gambiae; [23]) was 100% and the “Susceptible An. Gambiae (% dead (SE))” value (Susceptible An. Gambiae; [24]) was 100%. For the same molecule, the “Susceptible An. Gambiae (% dead (SE))” value (Susceptible An. Gambiae; [25]) was 100%.
